In article PMC3292429 (Channels, 2009):
“Also recorded” adds a separate entry of the source.

What was measured:
IK1 channel = conditions: cited from earlier work; for mechanism of IK1 current increase: result in words
[1] = test system: BK channel (large conductance Ca^2+-activated K channel, KCa1.1) in parotid acinar cells; experiment: Whole-cell patch clamp: IK1-induced inhibition of BK current; assay type: cell-based, mouse
BK channel [2] = molecular target: BK channel (Mus musculus, UniProt Q08460); conditions: result in words; cited from earlier work
Sequence of BK channel (Mus musculus, UniProt Q08460) (Q08460 whole entry): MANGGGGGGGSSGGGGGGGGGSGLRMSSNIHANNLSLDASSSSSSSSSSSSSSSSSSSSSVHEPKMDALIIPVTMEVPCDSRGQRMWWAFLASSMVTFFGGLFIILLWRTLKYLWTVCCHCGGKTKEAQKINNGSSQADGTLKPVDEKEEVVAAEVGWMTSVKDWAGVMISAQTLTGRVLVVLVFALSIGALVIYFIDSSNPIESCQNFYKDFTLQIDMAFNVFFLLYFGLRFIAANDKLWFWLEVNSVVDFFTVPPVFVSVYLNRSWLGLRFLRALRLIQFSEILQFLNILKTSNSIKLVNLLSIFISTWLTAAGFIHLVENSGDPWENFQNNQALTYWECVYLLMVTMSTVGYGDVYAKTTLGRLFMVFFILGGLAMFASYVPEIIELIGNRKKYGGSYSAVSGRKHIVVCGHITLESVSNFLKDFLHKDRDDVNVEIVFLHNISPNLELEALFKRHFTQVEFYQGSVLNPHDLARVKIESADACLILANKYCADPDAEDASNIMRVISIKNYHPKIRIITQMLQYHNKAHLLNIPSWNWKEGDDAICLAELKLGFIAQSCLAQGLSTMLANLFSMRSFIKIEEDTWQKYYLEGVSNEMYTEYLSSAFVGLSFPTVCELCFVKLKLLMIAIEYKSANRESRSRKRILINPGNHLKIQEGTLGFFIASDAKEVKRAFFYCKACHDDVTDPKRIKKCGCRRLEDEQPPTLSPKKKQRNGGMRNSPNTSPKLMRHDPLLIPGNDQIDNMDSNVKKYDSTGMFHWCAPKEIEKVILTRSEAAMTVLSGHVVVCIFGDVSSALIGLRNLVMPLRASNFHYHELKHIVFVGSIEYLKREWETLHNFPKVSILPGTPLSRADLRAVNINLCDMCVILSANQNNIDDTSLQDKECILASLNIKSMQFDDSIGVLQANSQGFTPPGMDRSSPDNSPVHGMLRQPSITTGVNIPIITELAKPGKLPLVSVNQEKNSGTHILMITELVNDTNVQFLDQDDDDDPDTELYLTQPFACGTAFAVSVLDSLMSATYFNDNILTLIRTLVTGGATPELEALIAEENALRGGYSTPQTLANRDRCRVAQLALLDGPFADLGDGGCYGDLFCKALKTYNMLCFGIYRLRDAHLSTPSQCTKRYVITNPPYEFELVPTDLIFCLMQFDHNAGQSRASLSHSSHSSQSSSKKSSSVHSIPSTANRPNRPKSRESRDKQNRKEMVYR

[3] = test system: IK1 (intermediate conductance Ca^2+-activated K channel, KCa3.1); experiment: Whole-cell patch clamp: IK1 current; assay type: cell-based, mouse; conditions: 10 μM DCEBIO, +50 mV, 80 nM free Ca^2+; result in words
BK channel [4] = conditions: result in words, cited from earlier work
[5] = test system: IK1 (intermediate conductance Ca^2+-activated K channel, KCa3.1); conditions: result in words; cited from earlier work
[6] = stated without own data or reference

## CCn1c(=O)[nH]c2ccccc21 [1-EBIO, 1-ethyl-2-benzimidazolinone]
IK1 channel; channels activated by 1-EBIO
  share of closed events accounted for by the two closed times together: 97%
  share of events with closed time 5 msec: 31%
  share of events with closed time about 1.6 msec: 66%
IK1 channel
  mechanism of IK1 current increase: increase IK1 current by increasing the channel open probability

## CCn1c(=O)[nH]c2cc(Cl)c(Cl)cc21 [DCEBIO, 5,6-Dichloro-1-ethyl-1,3-dihydro-2H-benzimidazol-2-one]
[1]; 2 μM DCEBIO, pooled from 5 cells, voltage-independent (Fig. 5A)
  reduction of BK current: 50%
[1]; 10 μM DCEBIO, +50 mV, 80 nM free Ca^2+ in pipette, single example (Fig. 1)
  recovery of BK current after washout of DCEBIO: 96 % of control
[1]; 10 μM DCEBIO, +50 mV, mean ± SEM, 9 experiments
  mean recovery of BK current after washout of DCEBIO: 94 ± 3%
[1]; 10 μM DCEBIO, +50 mV, reversible, result in words
  effect on time-dependent BK current: time-dependent BK current was reduced when IK1 channels were activated
[1]; 10 μM DCEBIO, +50 mV, single example (Fig. 2)
  inhibition of BK channel current by IK1 activation: 60%
[1]; 10 μM DCEBIO, four of 19 cells, omitted from analysis, result in words
  reduction in BK current by IK1 activation, remaining cells: only modest reductions
[1]; 10 μM DCEBIO, range of test voltages, result in words
  voltage dependence of IK1-induced BK inhibition: very little voltage dependence; also recorded: relatively little and no consistent voltage dependence
[1]; DCEBIO (10 μM), +50 mV, mean ± SEM, N = 5
  mean block of BK current by IK1 activation: 66 ± 6%
BK channel [2]
  effect on BK channels in cells from IK1 gene-ablated mice: no effects on BK channels
IK1 channel
  mechanism of IK1 current increase: increase IK1 current by increasing the channel open probability
[3]
  activation of IK1 current: activated the time and voltage independent IK1 currents; also recorded: triggered the expected time- and voltage-independent current through these channels

## CC[N+](CC)(CC)CC [TEA]
BK channel [4]; [6]
  effect of internal TEA on BK single channel current level: reduction in the BK single channel current level (as does TEA)
  time dependence of open channel block by internal TEA: no apparent time dependence

## Clc1ccccc1C(c1ccccc1)(c1ccccc1)n1cccn1 [TRAM-34]
[1]; 1 or 10 μM TRAM-34 in presence of DCEBIO, mean ± SEM, N = 5
  mean BK level after IK1 block by TRAM-34: 88 ± 3 % of control
[5]
  IK1 channel inhibition: IK1 inhibitor

## C[N+](C)(C)CCCCCCCCCC[N+](C)(C)C [decamethonium]
BK channel [4]
  competition of native β subunit inactivation with cytosolic blockers: does not

## CC(C)(O)[C@H]1O[C@H]2CC[C@@]3(C)[C@@](O)(CC[C@H]4Cc5c([nH]c6ccccc56)[C@@]43C)C2=CC1=O [paxilline]
BK channel [4]
  BK channel block by paxilline: specific BK channel blocker
